Key:
[1] = system: C. parvum; test: DNA replication assay (EdU incorporation); format: cell-based, Cryptosporidium parvum; conditions: compound at EC90; for DNA Synthesis Assay: Mean % Inhibition of EdU-labeling (normalized to parasite numbers), Average: average of replicates; for DNA Synthesis Assay: Mean % Inhibition of EdU-labeling (normalized to parasite numbers), Replicate 1: single replicate 1; for DNA Synthesis Assay: Mean % Inhibition of EdU-labeling (normalized to parasite numbers), Replicate 2: single replicate 2; for DNA Synthesis Assay: Mean % Inhibition of EdU-labeling (normalized to parasite numbers), Replicate 3: single replicate 3
[2] = system: C. parvum; test: Egress, motility, reinvasion assay (PV ratio); conditions: compound at EC90; for Egress and Reinvasion Assay: Mean PV ratios (19.5h:6h), Average: average of replicates; for Egress and Reinvasion Assay: Mean PV ratios (19.5h:6h), Replicate 1a: single replicate 1; for Egress and Reinvasion Assay: Mean PV ratios (19.5h:6h), Replicate 2a: single replicate 2; for Egress and Reinvasion Assay: Mean PV ratios (19.5h:6h), Replicate 3a: single replicate 3; for Egress and Reinvasion Assay: Mean PV ratios (19.5h:6h), Replicate 4a: single replicate 4; for Egress and Reinvasion Assay: Mean PV ratios (19.5h:6h), Replicate 5a: single replicate 5
Experimental: (§1) For quantification of parasitophorous vacuoles over time, HCT-8 cells were grown to greater than 90% confluence in 384-well plates and infected with 11,000 oocysts after triggering excystation.

[3] = system: C. parvum; format: cell-based, Cryptosporidium parvum; conditions: compound at EC90; for Invasion Assay: Mean % Inhibition (parasites), Average: average of replicates; for Invasion Assay: Mean % Inhibition (parasites), Replicate 1a: single biological replicate 1; for Invasion Assay: Mean % Inhibition (parasites), Replicate 2a: single biological replicate 2; for Invasion Assay: Mean % Inhibition (parasites), Replicate 3a: single biological replicate 3; for Invasion Assay: Mean % Inhibition (parasites), Replicate 4a: single biological replicate 4
Experimental: The first step in infection is host cell invasion, which involves a complex process encompassing oocyst excystation, parasite motility, adhesion, and parasitophorous vacuole formation (Fig. 2a). Our strategy to assay for compounds affecting invasion was simply to expose C. parvum to compounds immediately after triggering excystation and throughout the invasion process, and then enumerate the parasite vacuoles after 3 h, prior to allowing the parasites to replicate (summarized in Fig. 2b).
Fig. 2 Invasion Assay. a Overview of life cycle stage investigated during the invasion assay. Representative TEM images of a C. parvum oocyst and HCT-8 cell shortly after infection (Scale bar = 500 nm). b Schematic of experimental design. […] Each point represents the mean and SD of at least two biological replicates with four technical replicates per experiment.
C. parvum invasion inhibition was measured by modifying the 48 h growth inhibition assay described above. […] In parallel, Iowa strain oocysts were excysted. […] Assay plates were incubated at 37 °C and 5% CO2 for 3 h.

[4] = system: C. parvum; conditions: ref Jumani, et al. 2018. AAC.; cited from earlier work
[5] = system: C. parvum; test: Time course infection experiment (PV numbers versus time)
Experimental: as §1

[6] = yes/no grouping by phenotypic assay result

Structure (SMILES) | DNA Synthesis Assay: Mean % Inhibition of EdU-labeling (normalized to parasite numbers), Average [1] | DNA Synthesis Assay: Mean % Inhibition of EdU-labeling (normalized to parasite numbers), Replicate 1 [1] | DNA Synthesis Assay: Mean % Inhibition of EdU-labeling (normalized to parasite numbers), Replicate 2 [1] | DNA Synthesis Assay: Mean % Inhibition of EdU-labeling (normalized to parasite numbers), Replicate 3 [1] | Egress and Reinvasion Assay: Mean PV ratios (19.5h:6h), Average [2] | Egress and Reinvasion Assay: Mean PV ratios (19.5h:6h), Replicate 1a [2] | Egress and Reinvasion Assay: Mean PV ratios (19.5h:6h), Replicate 2a [2] | Invasion Assay: Mean % Inhibition (parasites), Average [3] | Invasion Assay: Mean % Inhibition (parasites), Replicate 1a [3] | Invasion Assay: Mean % Inhibition (parasites), Replicate 2a [3] | Egress and Reinvasion Assay: Mean PV ratios (19.5h:6h), Replicate 3a [2] | Egress and Reinvasion Assay: Mean PV ratios (19.5h:6h), Replicate 4a [2] | Invasion Assay: Mean % Inhibition (parasites), Replicate 3a [3] | other results
NC[C@@H]1O[C@H](O[C@H]2[C@@H](O)[C@H](O[C@@H]3[C@@H](O)[C@H](N)C[C@H](N)[C@H]3O[C@H]3O[C@H](CO)[C@@H](O)[C@H](O)[C@H]3N)O[C@@H]2CO)[C@H](N)[C@@H](O)[C@@H]1O [Paromomycin] | 18.81% | -11.54% | 39.99% | 27.99% | 2.15 | 2.19 | 2.11 | -28.42% | -32% | -25% | – | – | – | effect on C. parvum DNA replication / EdU incorporation ([1]; result in words): no effect on EdU incorporation; effect on host cell invasion / parasitophorous vacuole formation ([3]; result in words): no significant effect on parasitophorous vacuole formation; activity in NSG mouse model [4]: active
COc1ccc(NC(=O)N2CCCCN3C(CN(C)C)C(c4ccc(C#Cc5ccccc5)cc4)C3C2)cc1 (stereo not shown) [BRD7929] | 93.39% | 85.08% | 95.72% | 99.38% | 0.72 | 0.46 | 0.99 | 0.40% | -20% | 20% | 0.98 | 0.41 | 1.85% | Egress and Reinvasion Assay: Mean PV ratios (19.5h:6h), Replicate 5a [2]: 0.78
CN(C)S(=O)(=O)c1ccc(C(=O)N2CCN(c3ccc4nncn4n3)CC2)cc1 [D-44] | 12.07% | 29.16% | 10.90% | -3.84% | 2.21 | 2.22 | 2.32 | -11.48% | -25% | -14% | 1.73 | 2.75 | 2% | Egress and Reinvasion Assay: Mean PV ratios (19.5h:6h), Replicate 5a [2]: 1.96; Egress and Reinvasion Assay: Mean PV ratios (19.5h:6h), Replicate 6a ([2]; single replicate 6): 2.29; Invasion Assay: Mean % Inhibition (parasites), Replicate 4a [3]: -9%
CC(C)c1c(C(=O)Nc2ccccc2)c(-c2ccccc2)c(-c2ccc(F)cc2)n1CC[C@@H](O)C[C@@H](O)CC(=O)O [Atorvastatin] | -4.60% | -2.45% | -19.78% | 8.45% | 1.88 | 1.94 | 1.82 | -38.43% | -51% | -26% | – | – | – | –
Oc1c(CN2CCN(c3ccccc3F)CC2)cc(Br)c2cccnc12 [A-6] | 89.49% | 98.00% | 97.32% | 80.45% | 0.79 | 0.65 | 0.93 | -20.21% | -18% | -23% | – | – | – | DNA Synthesis Assay: Mean % Inhibition of EdU-labeling (normalized to parasite numbers), Replicate 4 ([1]; single replicate 4): 78.02%; DNA Synthesis Assay: Mean % Inhibition of EdU-labeling (normalized to parasite numbers), Replicate 5 ([1]; single replicate 5): 93.68%; DNA synthesis [1, 6]: yes; Sporozoite invasion [3, 6]: no
Cc1cn(-c2cc(NC(=O)c3ccc(C)c(Nc4nccc(-c5cccnc5)n4)c3)cc(C(F)(F)F)c2)cn1 [Nilotinib] | 22.05% | 29.68% | 14.41% | – | 1.05 | 1.50 | 1.54 | -21.88% | -24% | -19% | 0.60 | 0.54 | – | –
Cc1cccc(-n2ncc3c(O)nc(-n4nc(C)cc4NC(=O)c4cc5ccccc5o4)nc32)c1 [C-1] | 91.44% | 100% | 100% | 74.32% | 0.80 | 0.80 | 1.08 | -10.80% | -29% | -22% | 0.56 | 0.76 | 9% | Parasites Detected, Average ([5]; C1 at 2*EC90, 6 h post-infection): 1992; Parasites Detected, Average ([5]; C1 at 2*EC90, 9.5 h post-infection): 2503; Parasites Detected, Average ([5]; C1 at 2*EC90, 12 h post-infection): 1773; Parasites Detected, Average ([5]; C1 at 2*EC90, 13.5 h post-infection): 1847; Parasites Detected, Average ([5]; C1 at 2*EC90, 15 h post-infection): 879; Parasites Detected, Average ([5]; C1 at 2*EC90, 18 h post-infection): 1045; Parasites Detected, Average ([5]; C1 at 2*EC90, 19.5 h post-infection): 1400; Parasites Detected, Average ([5]; C1 at 2*EC90, 22.5 h post-infection): 945; Parasites Detected, Average ([5]; C1 at EC90, 6 h post-infection): 2336; Parasites Detected, Average ([5]; C1 at EC90, 9.5 h post-infection): 2363; Parasites Detected, Average ([5]; C1 at EC90, 12 h post-infection): 2052; Parasites Detected, Average ([5]; C1 at EC90, 13.5 h post-infection): 2149; Parasites Detected, Average ([5]; C1 at EC90, 15 h post-infection): 1056; Parasites Detected, Average ([5]; C1 at EC90, 18 h post-infection): 1258; Parasites Detected, Average ([5]; C1 at EC90, 19.5 h post-infection): 2054; Parasites Detected, Average ([5]; C1 at EC90, 22.5 h post-infection): 2003; Invasion Assay: Mean % Inhibition (parasites), Replicate 4a [3]: -0.416%
CSc1ccccc1C(=O)Nc1nc(-c2ccccn2)cs1 [MMV001246] | 72.11% | 57.69% | 70.62% | 88.02% | 0.43 | 0.60 | 0.25 | -7.41% | -15% | 0.521% | – | – | – | –

— paper PMC6478823, “A suite of phenotypic assays to ensure pipeline diversity when prioritizing drug-like Cryptosporidium growth inhibitors” (Nature Communications, 2019)
